Converted amounts (≈) assume the structure as drawn.
Experiments:
[1] = tested on: Colletotrichum acutatum; assay: Spiral gradient dilution method, inhibition of mycelial growth; assay type: cell-based; settings: PDA, 20° C., hinokitiol in acetone
Method: (§1) In this method, a potato dextrose agar (PDA) medium is plated with the test solution by means of a spiral plater, which applies the compound in a 2.5-log dilution in a continuous radial concentration gradient. Fungal inoculum in two replicates is then placed along radial lines across the gradient. […] EC50 values were calculated based on these measurements. The fungi evaluated were members of the following families Anamorphic Phyllachoraceae (Colletotrichum acutatum), Anamorphic Sclerotiniaceae (Botrytis cinerea), Mitosporic fungi (Verticillium dahlias; Microphomina sp.), and Oomycota (Phytophtora capsici). Hinokitiol (5 mg/mL) was dissolved in acetone, and acetone alone was also used as a control to check for non-specific inhibition.

[2] = tested on: Microphomina sp.; assay: as above; assay type: cell-based; settings: PDA, 20° C., hinokitiol in acetone
Method: as §1

[3] = tested on: Phytophtora capsici; assay: as above; assay type: cell-based; settings: PDA, 20° C., hinokitiol in acetone
Method: as §1

[4] = tested on: Verticillium dahliae; assay: as above; assay type: cell-based; settings: PDA, 20° C., hinokitiol in acetone
Method: as §1

[5] = tested on: Botrytis cinerea; assay: Spiral gradient dilution method, inhibition of mycelial growth and spore germination; assay type: cell-based
Method: as §1

[6] = tested on: Geotrichum; assay: Hinokitiol spiral PDA plates, growth after 2 days; assay type: cell-based; settings: 2 days of incubation
Method: as §1
(§2) Another set of hinokitiol spiral PDA plates prepared as above were inoculated with plant pathogenic fungi from the genera Mucor, Rhizoctonia, Geotrichum, Phoma, and Penicillium.

[7] = tested on: Mucor; assay: Hinokitiol spiral PDA plates, growth after 2 days; assay type: cell-based; settings: 2 days of incubation
Method: as §1, §2

[8] = tested on: Penicillium; assay: Hinokitiol spiral PDA plates, growth after 2 days; assay type: cell-based; settings: 2 days of incubation
Method: as §1, §2

[9] = tested on: Phoma; assay: Hinokitiol spiral PDA plates, growth after 2 days; assay type: cell-based; settings: 2 days of incubation
Method: as §1, §2

[10] = tested on: Rhizoctonia; assay: Hinokitiol spiral PDA plates, growth after 2 days; assay type: cell-based; settings: 2 days of incubation
Method: as §1, §2

[11] = tested on: Lactuca sativa (lettuce) seedlings; assay: High-throughput 96-well post-emergence herbicide assay; assay type: in vivo
Method: A high-throughput 96-well assay was used to test the efficacy of hinokitiol as a post-emergence, non-selective herbicide. Seedlings of Lactuca sativa (lettuce) were grown in 96-well plates under continuous light. Hinokitiol was added on the one-week old seedlings at a 5×-dilution series from 1 to 0 mg/mL, and the minimum concentration needed for killing the seedling was recorded the next day.

[12] = tested on: annual bluegrass (Poa annua); assay: Pot study, phytotoxicity and % weed control; assay type: in vivo
Method: (§3) A pot study was conducted to test the phytotoxicity of hinokitiol on both broadleaved and grass weed. Ten seeds of either chickweed (Stellaria media) or annual bluegrass (Poa annua) were planted in a plastic pot filled with potting mix. The 2-inch tall plants grown under growth lights (12-h light/12-h dark) at room temperature were sprayed with hinokitiol solutions containing 0.5, 1.0, 2.0, 3.0, 4.0 and 5.0 mg/mL hinokitiol in 50% ethanol. A solution of 50% ethanol without hinokitiol was used as a control treatment. The plants were kept at room temperature under growth lights and observed at two time points—4 and 14 days after treatment—for visual symptoms of phytotoxicity and % weed control.

[13] = tested on: chickweed (Stellaria media); assay: Pot study, phytotoxicity and % weed control; assay type: in vivo
Method: as §3

[14] = tested on: spurge, white clover, annual bluegrass and crab grass; assay: Field study of herbicidal effect, % weed control; assay type: in vivo
Method: A hinokitiol formulation containing 32.4% of hinokitiol by weight was tested in a field study. The formulation also contained dispersing agent, water and emulsifier. The two concentrations tested contained 5% and 0.5% hinokitiol (w/w), and the spraying volume was 100 gallons per acre. Three replicate 1-square-foot plots were sprayed with the appropriate solutions, and the % weed control in each plot was recorded at 3, 7, 14 and 20 days after treatment. The main weeds in this study were spurge, white clover, annual bluegrass and crab grass.

[15] = tested on: Monilinia fructicola (MON); assay: Spiral plating method, growth inhibition; assay type: cell-based; settings: M. fructicola; average distance of inhibition / 28 mm × 100
Method: The spiral plating method was used to deposit the fungicides on PDA and TSA plates with exponential logarithmic decrease of product concentration from the centre to the edge of the plate. The plates were left standing for four hours and inoculated with the fungus and bacteria. There were four repetitions of the same microorganism done per plate and there was one replica of each plate.
The plates were cultured for 3 days before measurements of growth were taken. The ‘distance of inhibition’ indicates the length of the zone with no growth, measured from center edge of the agar, the ‘colony width ratio’ indicates the ratio of the width of growth measured at the zero concentration and width at the highest concentration with growth.

[16] = 0.5 mg/mL in 50% ethanol, 4 DAYS
[17] = 0.5 mg/mL in 50% ethanol, 14 DAYS
[18] = 1.0 mg/mL in 50% ethanol, 4 DAYS
[19] = 1.0 mg/mL in 50% ethanol, 14 DAYS
[20] = 2.0 mg/mL in 50% ethanol, 4 DAYS
[21] = 2.0 mg/mL in 50% ethanol, 14 DAYS
[22] = 3.0 mg/mL in 50% ethanol, 4 DAYS
[23] = 3.0 mg/mL in 50% ethanol, 14 DAYS
[24] = 4.0 mg/mL in 50% ethanol, 4 DAYS
[25] = 4.0 mg/mL in 50% ethanol, 14 DAYS
[26] = 5.0 mg/mL in 50% ethanol, 4 DAYS
[27] = 5.0 mg/mL in 50% ethanol, 14 DAYS

## CC(C)c1cccc(=O)c(O)c1 [Hinokitiol, 4-isopropyl tropolone]
[1]
  EC50: 12 µg/mL (≈ 73.1 µM)
[2]
  EC50: 11 µg/mL (≈ 67 µM)
[3]
  EC50: 12 µg/mL (≈ 73.1 µM)
[4]
  EC50: 11 µg/mL (≈ 67 µM)
[5]; B. cinerea, hinokitiol at concentrations 5-0.05 mg/mL, light microscope
  inhibition in spore germination: 100%
[5]; Botrytis cinerea, PDA, 20° C., hinokitiol in acetone
  EC50: 31 µg/mL (≈ 189 µM)
[6]
  inhibition of growth: complete inhibition
[7]
  inhibition of growth: complete inhibition
[8]
  inhibition of growth: complete inhibition
[9]
  inhibition of growth: complete inhibition
[10]
  inhibition of growth: complete inhibition
[11]; concentration of 8 mg/L
  effect on lettuce seedlings: not harmful to the plant
[11]; one-week old lettuce seedlings, recorded the next day
  minimum concentration needed for killing the seedling: 40 mg/L
[12]; [16]
  Poa annua (% control): 0%
[12]; [17]
  Poa annua (% control): 0%
[12]; [18]
  Poa annua (% control): 1%
[12]; [19]
  Poa annua (% control): 0%
[12]; [20]
  Poa annua (% control): 2%
[12]; [21]
  Poa annua (% control): 5%
[12]; [22]
  Poa annua (% control): 10%
[12]; [23]
  Poa annua (% control): 15%
[12]; [24]
  Poa annua (% control): 30%
[12]; [25]
  Poa annua (% control): 25%
[12]; [26]
  Poa annua (% control): 50%
[12]; [27]
  Poa annua (% control): 50%
[13]; [16]
  Stellaria media (% control): 1%
[13]; [17]
  Stellaria media (% control): 0%
[13]; [18]
  Stellaria media (% control): 2%
[13]; [19]
  Stellaria media (% control): 10%
[13]; [20]
  Stellaria media (% control): 10%
[13]; [21]
  Stellaria media (% control): 55%
[13]; [22]
  Stellaria media (% control): 95%
[13]; [23]
  Stellaria media (% control): 100%
[13]; [24]
  Stellaria media (% control): 98%
[13]; [25]
  Stellaria media (% control): 100%
[13]; [26]
  Stellaria media (% control): 100%
[13]; [27]
  Stellaria media (% control): 100%
[14]; 0.5% hinokitiol (w/w), 3 DAYS
  % weed control: 3.3%
[14]; 0.5% hinokitiol (w/w), 7 DAYS
  % weed control: 3.7%
[14]; 0.5% hinokitiol (w/w), 14 DAYS
  % weed control: 1.7%
[14]; 0.5% hinokitiol (w/w), 20 DAYS
  % weed control: 3.0%
[14]; 5.0% hinokitiol (w/w), 7 DAYS
  % weed control: 90.3%
[14]; 5.0% hinokitiol (w/w), 14 DAYS
  % weed control: 88.3%
[14]; 5.0% hinokitiol (w/w), 20 DAYS
  % weed control: 83.7%
[14]; 5.0% hinokitiol (w/w), 100 gallons per acre, 3 DAYS
  % weed control: 86.7%
[14]; formulation containing 5% (w/w) hinokitiol, one week after spraying
  weeds controlled: more than 90%
[14]; same solution at 10× lower concentration
  herbicidal effect on weeds: negligible effect
[15]
  % inhibition of growth: 48%

Source: patent US20090029856A1, “Hinokitiol As A Plant Pesticide” (priority 2007, published 2009)
